Source: ChEMBL document CHEMBL3603776, “2-Phenoxy-1,4-naphthoquinones: From a Multitarget Antitrypanosomal to a Potential Antitumor Profile” (J Med Chem, 2015)
Calls of active or inactive are those of the source. The calls are words filed in the database; no cut-off is given here.

Key:
Bos taurus [1] = organism: Bos taurus; assay: Inhibition of electron transport protein complex 1 in bovine hear mitochondria assessed as enzyme activity per min/mg of protein using […] as substrate at 10 uM
[2] = Inhibition of recombinant Trypanosoma brucei GAPDH assessed as oxidative phosphorylation of D-glyceraldehyde-3-phosphate to 1,3-bisphosphoglycerate by spectrophotometric method
[3] = molecular target: Glyceraldehyde-3-phosphate dehydrogenase (Homo sapiens, UniProt P04406); assay: Inhibition of recombinant human GAPDH assessed as oxidative phosphorylation of D-glyceraldehyde-3-phosphate to 1,3-bisphosphoglycerate by spectrophotometric method
Sequence of Glyceraldehyde-3-phosphate dehydrogenase (P04406 whole entry): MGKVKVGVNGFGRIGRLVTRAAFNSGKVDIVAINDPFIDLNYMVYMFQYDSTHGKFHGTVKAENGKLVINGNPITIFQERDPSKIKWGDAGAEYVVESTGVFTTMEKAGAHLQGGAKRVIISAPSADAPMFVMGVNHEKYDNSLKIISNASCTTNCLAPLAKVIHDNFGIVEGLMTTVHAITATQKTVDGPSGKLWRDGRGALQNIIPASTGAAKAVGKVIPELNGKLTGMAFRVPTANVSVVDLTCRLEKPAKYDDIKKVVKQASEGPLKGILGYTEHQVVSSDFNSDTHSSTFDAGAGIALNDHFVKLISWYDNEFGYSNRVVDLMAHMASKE

[4] = Cytotoxicity against HDF after 24 hrs by MTT assay; settings: Homo sapiens
IGROV-1 [5] = assay: Cytotoxicity against human IGROV1 cells after 24 hrs by MTT assay; type: functional, cell-based; settings: IGROV-1, 24 h
HT-29 [6] = assay: Cytotoxicity against human HT-29 cells after 24 hrs by MTT assay; type: functional, cell-based; settings: HT-29, 24 h
IGROV-1 [7] = assay: Selectivity index, ratio of IC50 for HDF to IC50 for human IGROV1 cells
HT-29 [8] = assay: Selectivity index, ratio of IC50 for HDF to IC50 for human HT-29 cells
Bos taurus [9] = organism: Bos taurus; assay: Inhibition of electron transport protein complex 1 in bovine hear mitochondria assessed as reduction of NADH-induced oxygen consumption up to 10 uM
Bos taurus [10] = organism: Bos taurus; assay: Inhibition of electron transport protein complex 1 in bovine hear mitochondria assessed as reduction of NADH-induced ROS production at 10 uM by fluorescence plate reader analysis
Leishmania donovani = assay: Antitrypanosomal activity against amastigotes of Leishmania donovani MHOM/ET/67/L82 after 72 hrs by inverted microscope analysis; type: functional, organism-based; settings: MHOM/ET/67/L82, 72 h
[11] = Selectivity index, ratio of IC50 for rat L6 cells to IC50 for amastigotes of Leishmania donovani MHOM/ET/67/L82; type: toxicity, cell-based; settings: read-out: Ratio IC50
L6 = assay: Cytotoxicity against rat L6 cells after 72 hrs by alamar blue assay; type: cell-based; settings: L6, 72 h
Trypanosoma brucei = assay: Inhibition of recombinant Trypanosoma brucei GAPDH assessed as oxidative phosphorylation of D-glyceraldehyde-3-phosphate to 1,3-bisphosphoglycerate at 5 uM by spectrophotometric method relative to 2-phenoxy-1,4-naphthoquinone
Bos taurus [12] = organism: Bos taurus; assay: Inhibition of electron transport protein complex 1 in bovine hear mitochondria assessed as reduction of NADH-induced oxygen consumption at 5 uM
Bos taurus [13] = organism: Bos taurus; assay: Inhibition of electron transport protein complex 2 in bovine hear mitochondria assessed as reduction of succinate-induced oxygen consumption at 5 uM
[14] = system: Trypanosoma brucei rhodesiense; assay: Antitrypanosomal activity against bloodstream forms of Trypanosoma brucei rhodesiense STIB 900 after 72 hrs by alamar blue assay; type: functional, organism-based; settings: STIB 900, 72 h
[15] = Selectivity index, ratio of IC50 for rat L6 cells to IC50 for bloodstream forms of Trypanosoma brucei rhodesiense STIB 900; type: toxicity, cell-based; settings: read-out: Ratio IC50

Question: For `O=C1C=C(Oc2ccccc2)C(=O)c2ccccc21`, which Activity (Bos taurus [1]) is on record?
Answer: 0.052 µmol/min/mg

Question: What about the IC50 [2] of the same compound?
Answer: 5.73 µM

Question: What about the IC50 [3] of the same compound?
Answer: 0.59 µM

Question: And the IC50 [4]?
Answer: 9.84 µM

Question: And the IC50 (IGROV-1 [5])?
Answer: 3.43 µM

Question: What about the IC50 (HT-29 [6]) of the same compound?
Answer: 4.4 µM

Question: What about the “Ratio IC50” value (IGROV-1 [7]) of the same compound?
Answer: 2.87

Question: And the “Ratio IC50” value (HT-29 [8])?
Answer: 2.24

Question: What about the inhibition (Bos taurus [9]) of the same compound?
Answer: inactive

Question: And the inhibition (Bos taurus [10])?
Answer: Active

Question: Which IC50 (Leishmania donovani) does the source give for `COc1ccc(OC2=CC(=O)c3cc4ccccc4cc3C2=O)cc1` here?
Answer: 2.55 µM

Question: What about the selectivity ratio [11] of the same compound?
Answer: 0.09

Question: And the IC50 (L6)?
Answer: 0.24 µM

Question: What about the inhibition (Trypanosoma brucei) of the same compound?
Answer: 92%

Question: What about the Activity (Bos taurus [1]) of the same compound?
Answer: 0.029 µmol/min/mg

Question: And the IC50 [2]?
Answer: 15.6 µM

Question: And the IC50 [3]?
Answer: 1.41 µM

Question: What about the IC50 [4] of the same compound?
Answer: 17.1 µM

Question: And the IC50 (IGROV-1 [5])?
Answer: 2.31 µM

Question: What about the IC50 (HT-29 [6]) of the same compound?
Answer: 3.83 µM

Question: What about the “Ratio IC50” value (IGROV-1 [7]) of the same compound?
Answer: 7.4

Question: What about the “Ratio IC50” value (HT-29 [8]) of the same compound?
Answer: 4.46

Question: What about the inhibition (Bos taurus [12]) of the same compound?
Answer: 40%

Question: What about the inhibition (Bos taurus [13]) of the same compound?
Answer: inactive

Question: What about the inhibition (Bos taurus [10]) of the same compound?
Answer: Active

Question: What about the IC50 [14] of the same compound?
Answer: 0.38 µM

Question: And the selectivity ratio [15]?
Answer: 0.63
